# What was measured:
# Trichoderma hurzianum = assay: Linear (radial) growth of fungi in vitro on potato dextrose agar with allicin; format: cell-based; settings: PDA; for Linear growth, mm radius of growth: 0.1 ml allicin solution 2 mg/ml; for Effect on growth of the fungus (in words): in vitro
# Protocol: (§1) Pure allicin in aqueous solution at 2 mg/ml was obtained as previously described in International PCT Publication WO 97/39115, following the interaction of synthetic, nature-identical alliin (allylcysteine sulfoxide) with a preparation of stabilized garlic alliinase. Fungal plant pathogens were grown in soil as previously described (Ko et al, 1971). Contamination of soil with Rhizoctonia solani and infection of bean seedlings was determined as previously reported (Chet, 1987).
# (§2) The effect of allicin on the growth of a number of known soil fungal pathogens was examined in vitro. Fungi were innoculated in Petri dishes containing potato dextrose agar (PDA, Difco) and the radial growth rate of the fungi was measured every 24 hours. The effect of the addition of 0.1 ml of a solution of allicin (2.0 mg/ml) on the radial growth rate of the pathogen was determined after 24, 48, 72 and 96 hours.
# Sclerotinia sclerotiorum = assay: as above; format: cell-based; settings: PDA; for Linear growth, mm radius of growth: 0.1 ml allicin solution 2 mg/ml; for Effect on growth of the fungus (in words): in vitro
# Protocol: as §1, §2
# Rhizoctonia solani Kuhn = assay: as above; format: cell-based; settings: PDA; for Linear growth, mm radius of growth: 0.1 ml allicin solution 2 mg/ml; for Effect on growth of the fungus (in words): in vitro
# Protocol: as §1, §2
# [1] = system: Fusarium oxysporum f. sp. vasinfectum; assay: as above; format: cell-based; settings: PDA; for Linear growth, mm radius of growth: 0.1 ml allicin solution 2 mg/ml; for Effect on growth of the fungus (in words): in vitro
# Protocol: as §1, §2
# Sclerotium Rolfsii Sacc. = assay: as above; format: cell-based; settings: PDA; for Linear growth, mm radius of growth: 0.1 ml allicin solution 2 mg/ml; for Effect on growth of the fungus (in words): in vitro
# Protocol: as §1, §2
# Rhizoctonia solani = assay: Diseased bean plants (Phaseolus vulgaris L.) grown in Rhizoctonia solani contaminated soil pre-treated with allicin; format: in vivo
# Protocol: as §1
# Boxes with raw red-brown, sandy loam soil (0.5 Kg) 1.0 were precontaminated with viable Rhizoctonia solani. The fungi-contaminated soil in the boxes were subsequently irrigated with aqueous solutions (30 ml/box) containing different concentrations of allicin (A: 0.31 mg allicin/ml; B: 0.62 mg allicin/ml; C: 0.94 mg allicin/ml; D: 1.25 mg allicin/ml). Irrigations were repeated 3 times, with 3 days intervals between treatments. Controls were irrigated with similar volumes of water. Four soil replicates were irrigated for each allicin concentration as well as for the control. Following each irrigation step, the soil boxes were closed in nylon bags. Four days after the last irrigation, the bags were opened and the boxes with the soil ventilated for 5 more days.
# Bean seeds (Phaseolus vulgaris L.) (10/box) were then planted in each of the boxes and the growth and development of disease in the plants was determined after 14 days. As shown in Table 2 and FIGS. 1-2, black columns, 86% of the control plants became diseased whereas in soil pre-irrigated with 0.94 (FIGS. 1-2, C) and 1.25 (FIGS. 1-2, D) mg/ml allicin, less than 20% of the plants became diseased (decrease of >80% in diseased plants, FIG. 2). The effect of allicin was dose-dependent and at the lowest concentration tested (0.31 mg allicin/ml), the decrease in the number of diseased plants was only 14% (Table 2 and FIGS. 1-2, black columns).
# In order to test the time length efficacy of soil that was pre-treated with allicin, an additional experiment was done in the same soil boxes. After the first cycle of the bean growth experiment for 14 days described above, the plants were removed and a second cycle of bean growth was conducted whereby a new set of bean seeds was immediately seeded in the same soil boxes and the development of disease in the plants grown in this second cycle was determined after 14 days. The results are shown in Table 2 and in FIGS. 1-2, gray columns. […] Some protection (33%) was also observed in soils irrigated with 0.94 mg allicin/ml (C).
compound,measurement,setting,value
"C=CCS[S+]([O-])CC=C (stereo not shown) [Allicin, thio-2-propene-1-sulfinic acid S-allyl ester]","Linear growth, mm radius of growth",Trichoderma hurzianum; 24 hrs,2.5 mm
same,"Linear growth, mm radius of growth",Trichoderma hurzianum; 48 hrs,7.5 mm
same,"Linear growth, mm radius of growth",Trichoderma hurzianum; 72 hrs,22.5 mm
same,Effect on growth of the fungus (in words),Trichoderma hurzianum,Very significant inhibition of growth
same,"Linear growth, mm radius of growth",Sclerotinia sclerotiorum; 24 hrs,0.5 mm
same,"Linear growth, mm radius of growth",Sclerotinia sclerotiorum; 48 hrs,7.5 mm
same,"Linear growth, mm radius of growth",Sclerotinia sclerotiorum; 72 hrs,20 mm
same,"Linear growth, mm radius of growth",Sclerotinia sclerotiorum; 96 hrs,45 mm
same,Effect on growth of the fungus (in words),Sclerotinia sclerotiorum,Very significant inhibition of growth
same,"Linear growth, mm radius of growth",Rhizoctonia solani Kuhn; 24 hrs,2.5 mm
same,"Linear growth, mm radius of growth",Rhizoctonia solani Kuhn; 48 hrs,7.5 mm
same,"Linear growth, mm radius of growth",Rhizoctonia solani Kuhn; 72 hrs,15 mm
same,Effect on growth of the fungus (in words),Rhizoctonia solani Kuhn,Very significant inhibition of growth
same,"Linear growth, mm radius of growth",[1]; 24 hrs,2.5 mm
same,"Linear growth, mm radius of growth",[1]; 48 hrs,7.5 mm
same,"Linear growth, mm radius of growth",[1]; 72 hrs,12.5 mm
same,"Linear growth, mm radius of growth",[1]; 96 hrs,15 mm
same,Effect on growth of the fungus (in words),[1],Very significant inhibition of growth
same,"Linear growth, mm radius of growth",Sclerotium Rolfsii Sacc.; 24 hrs,0 mm
same,"Linear growth, mm radius of growth",Sclerotium Rolfsii Sacc.; 48 hrs,2.5 mm
same,"Linear growth, mm radius of growth",Sclerotium Rolfsii Sacc.; 72 hrs,15 mm
same,Effect on growth of the fungus (in words),Sclerotium Rolfsii Sacc.,Very significant inhibition of growth
same,Diseased Plants (%),"Rhizoctonia solani; First Cycle (14 days after planting), treatment A: 0.31 mg allicin/ml (30 ml), 3 irrigations, 0.5 Kg soil",74%
same,Diseased Plants (%),"Rhizoctonia solani; First Cycle (14 days after planting), treatment B: 0.62 mg allicin/ml (30 ml), 3 irrigations, 0.5 Kg soil",39%
same,Diseased Plants (%),"Rhizoctonia solani; First Cycle (14 days after planting), treatment C: 0.94 mg allicin/ml (30 ml), 3 irrigations, 0.5 Kg soil",16%
same,Diseased Plants (%),"Rhizoctonia solani; First Cycle (14 days after planting), treatment C: 0.94 mg allicin/ml (30 ml), 3 irrigations, 0.5 Kg soil, listed as allicin",less than 20%
same,Diseased Plants (%),"Rhizoctonia solani; First Cycle (14 days after planting), treatment D: 1.25 mg allicin/ml (30 ml), 3 irrigations, 0.5 Kg soil",18%
same,Diseased Plants (%),"Rhizoctonia solani; First Cycle (14 days after planting), treatment D: 1.25 mg allicin/ml (30 ml), 3 irrigations, 0.5 Kg soil, listed as allicin",less than 20%
same,Diseased Reduction (%),"Rhizoctonia solani; First Cycle, treatment A: 0.31 mg allicin/ml (30 ml)",14%
same,Diseased Reduction (%),"Rhizoctonia solani; First Cycle, treatment B: 0.62 mg allicin/ml (30 ml)",55%
same,Diseased Reduction (%),"Rhizoctonia solani; First Cycle, treatment C: 0.94 mg allicin/ml (30 ml)",81%
same,Diseased Reduction (%),"Rhizoctonia solani; First Cycle, treatment C: 0.94 mg allicin/ml (30 ml), listed as allicin",> 80%
same,Diseased Reduction (%),"Rhizoctonia solani; First Cycle, treatment D: 1.25 mg allicin/ml (30 ml)",90%
same,Diseased Reduction (%),"Rhizoctonia solani; First Cycle, treatment D: 1.25 mg allicin/ml (30 ml), listed as allicin",> 80%
same,Diseased Plants (%),"Rhizoctonia solani; Second Cycle (14 days after replanting), treatment A: 0.31 mg allicin/ml (30 ml)",90%
same,Diseased Plants (%),"Rhizoctonia solani; Second Cycle (14 days after replanting), treatment A: 0.31 mg allicin/ml (30 ml), listed as allicin",almost identical to that of the controls
same,Diseased Plants (%),"Rhizoctonia solani; Second Cycle (14 days after replanting), treatment B: 0.62 mg allicin/ml (30 ml)",80%
same,Diseased Plants (%),"Rhizoctonia solani; Second Cycle (14 days after replanting), treatment B: 0.62 mg allicin/ml (30 ml), listed as allicin",almost identical to that of the controls
same,Diseased Plants (%),"Rhizoctonia solani; Second Cycle (14 days after replanting), treatment C: 0.94 mg allicin/ml (30 ml)",60%
same,Diseased Plants (%),"Rhizoctonia solani; Second Cycle (14 days after replanting), treatment D: 1.25 mg allicin/ml (30 ml)",30%
same,Diseased Reduction (%),"Rhizoctonia solani; Second Cycle, treatment A: 0.31 mg allicin/ml (30 ml)",0%
same,Diseased Reduction (%),"Rhizoctonia solani; Second Cycle, treatment B: 0.62 mg allicin/ml (30 ml)",11%
same,Diseased Reduction (%),"Rhizoctonia solani; Second Cycle, treatment C: 0.94 mg allicin/ml (30 ml)",33%
same,Diseased Reduction (%),"Rhizoctonia solani; Second Cycle, treatment D: 1.25 mg allicin/ml (30 ml)",66%
"allylcysteine sulfoxide [alliin, reference compound]",Effect on growth of the fungus (in words),Trichoderma hurzianum,no effect
same,Effect on growth of the fungus (in words),Sclerotinia sclerotiorum,no effect
same,Effect on growth of the fungus (in words),Rhizoctonia solani Kuhn,no effect
same,Effect on growth of the fungus (in words),[1],no effect
same,Effect on growth of the fungus (in words),Sclerotium Rolfsii Sacc.,no effect

# Source: patent US20040082479A1, “Method for soil sterilization from pathogens” (priority 2001, published 2004)
